Assay results reported in publication PMC8019892, “Para-Aminobenzohydrazide Derivatives as Fatty Acid Amide Hydrolase Inhibitors: Design, Synthesis and Biological Evaluation” (Iranian Journal of Pharmaceutical Research : IJPR, 2020).
Read-outs that look alike come from different tables or passages of the source.

Columns and labels:
[1] = target: T1, fatty acid amide hydrolase (FAAH) (Homo sapiens, UniProt O00519); assay: Cayman plate-based fluorometric FAAH assay kit; format: biochemical
T1 construct: purchased Cayman 10005196
T1 sequence (O00519 1-579): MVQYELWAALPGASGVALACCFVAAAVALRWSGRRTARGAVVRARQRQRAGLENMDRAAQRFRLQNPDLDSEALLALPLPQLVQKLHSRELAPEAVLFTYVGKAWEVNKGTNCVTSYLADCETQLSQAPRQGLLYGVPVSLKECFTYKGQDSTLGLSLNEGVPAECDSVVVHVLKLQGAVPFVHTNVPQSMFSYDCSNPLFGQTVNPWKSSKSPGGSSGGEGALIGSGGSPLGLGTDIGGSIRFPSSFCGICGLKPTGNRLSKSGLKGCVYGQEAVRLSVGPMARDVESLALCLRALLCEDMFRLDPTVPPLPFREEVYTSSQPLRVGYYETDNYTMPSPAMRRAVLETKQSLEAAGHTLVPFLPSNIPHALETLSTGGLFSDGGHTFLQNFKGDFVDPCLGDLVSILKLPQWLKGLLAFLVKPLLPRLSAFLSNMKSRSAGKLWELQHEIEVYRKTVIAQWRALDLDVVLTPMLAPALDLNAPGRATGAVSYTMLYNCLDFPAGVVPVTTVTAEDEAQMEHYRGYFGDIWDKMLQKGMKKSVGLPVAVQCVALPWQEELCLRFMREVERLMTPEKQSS
Procedure: The inhibitory activity of the final products was evaluated against fatty acid amide hydrolase with Cayman plate-based fluorometric FAAH assay kit (item number 10005196) using an excitation wavelength of 340 nm and an emission wavelength of 450 nm. The enzyme was incubated with inhibitors for 5 min in […] Tris/HCl buffer (pH 9.0) at 37 °C. AMC-arachidonoyl amide and JZL-195 were used as substrate and positive control respectively. All test samples were dissolved in DMSO.
The IC50 of the compounds with inhibitory activity above 70% and JZL-195, reference compound, were investigated at concentrations of 0.1, 5, 10, 20, 50 and 100 nM. The results are summarized in Table 1 Evaluation of the 5a, 5b and 7 derivatives have well illustrated the effect of phenyl group on inhibitory activity, which is probably directly related to lipophilicity and π-π interactions in lipophilic envelope.

FAAH = target: FAAH; parameters: method as in PMID 28535469, PMID 21764305, PMID 10805767; conditions: 8 and 9, cited from earlier work
[2] = 100 nM compound, 5 min incubation, Tris/HCl pH 9.0, 37 °C, substrate AMC-arachidonoyl amide, read-out: %inhibition at 100nM
[3] = concentrations 0.1, 5, 10, 20, 50 and 100 nM, fluorometric FAAH assay, read-out: IC50

Structure (SMILES)	inhibition at 0.1 µM [1, 2] [%]	melting point	further results
NC(=O)NNC(=O)c1ccc(NC(N)=O)cc1 [Compound 7, 2-(4-ureidobenzoyl) hydrazine-1-carboxamide]	27.3	226 to 228 °C (dec.)	–
O=C(NN1C(=O)c2ccccc2C1=O)c1ccc(N2C(=O)c3ccccc3C2=O)cc1 [Compound 8, N, 4-bis (1,3-dioxoisoindolin-2-yl) benzamide]	31.3	316 to 318 °C	–
O=C(NN1C(=O)CCC1=O)c1ccc(N2C(=O)CCC2=O)cc1 [Compound 9, N, 4-bis (2,5-dioxopyrrolidin-1-yl) benzamide]	45.1	273 to 275 °C	–
O=C(NNC(=O)c1ccc([N+](=O)[O-])cc1)c1ccc(NC(=O)c2ccc([N+](=O)[O-])cc2)cc1 [Compound 10f, 4-nitro-N-(4-(2-(4-nitrobenzoyl) hydrazine-1-carbonyl)phenyl) benzamide]	50.5	287 to 289 °C	–
O=C(O)CCC(=O)NNC(=O)c1ccc(NC(=O)CCC(=O)O)cc1 [Compound 11, 4-(2-(4-(3-carboxypropanamido)benzoyl) hydrazineyl)-4-oxobutanoic acid]	51.2	185 to 187 °C	–
O=C(NNC(=O)c1ccccc1C(=O)O)c1ccc(NC(=O)c2ccccc2C(=O)O)cc1 [Compound 12, 2-(2-(4-(2-carboxybenzamido)benzoyl) hydrazine-1-carbonyl) benzoic acid]	80	186 °C	IC50 [1, 3]: 1.62 nM
O=C(NNS(=O)(=O)c1ccccc1)c1ccc(NS(=O)(=O)c2ccccc2)cc1 [Compound 13, N-(4-(2-(phenylsulfonyl) hydrazine-1-carbonyl)phenyl) benzenesulfonamide]	31.4	239 to 241 °C	–
O=C(Oc1ccc([N+](=O)[O-])cc1)N1CCN(Cc2cccc(Oc3ccccc3)c2)CC1 [JZL-195, reference compound]	–	–	IC50 [1]: 1.31 nM; inhibition at 0.1 µM ([1]; pH 9, read-out: %inhibition at 100nM): 81%
O=C(CCCCCCc1ccccc1)c1nnc(-c2ccccn2)o1 [OL-135 analogue]	–	–	Ki (FAAH; known FAAH inhibitor, Figure 1): 0.29 nM
Cc1cccnc1NC(=O)CNC(=O)C(C)c1ccc(Nc2ccnc(C(F)(F)F)c2)cc1 (centres unmarked) [TPA-17]	–	–	IC50 (FAAH; known FAAH inhibitor, Figure 1): 2400 nM; FAAH inhibitory activity (FAAH; previously reported, in words): mild FAAH inhibitory activity

Continued, in another order:

inhibition at 0.1 µM [1, 2] [%]	melting point	Structure (SMILES)	further results
58.5	283 to 285 °C	NC(=O)NNC(=O)c1ccc(NC(=O)c2ccccc2)cc1 [Compound 5a, 2-(4-benzamidobenzoyl) hydrazine-1-carboxamide]	–
63.4	325 to 327 °C	NC(=O)NNC(=O)c1ccc(NC(=O)c2ccc(Cl)cc2)cc1 [Compound 5b, 2-(4-(4-chlorobenzamido)benzoyl) hydrazine-1-carboxamide]	–
81.1	265 to 267 °C	O=C(NNC(=O)c1ccc(NC(=O)c2ccccc2)cc1)c1ccccc1 [Compound 10a, N-(4-(2-benzoylhydrazine-1-carbonyl)phenyl) benzamide]	IC50 [1, 3]: 20.2 nM
77.4	273 to 275 °C	O=C(NNC(=O)c1cccc(Cl)c1)c1ccc(NC(=O)c2cccc(Cl)c2)cc1 [Compound 10b, 3-chloro-N-(4-(2-(3-chlorobenzoyl) hydrazine-1-carbonyl)phenyl) benzamide]	IC50 [1, 3]: 13.3 nM
77.3	315 to 318 °C	O=C(NNC(=O)c1ccc(NC(=O)c2ccc(Cl)cc2)cc1)c1ccc(Cl)cc1 [Compound 10c, 4-chloro-N-(4-(2-(4-chlorobenzoyl) hydrazine-1-carbonyl)phenyl) benzamide]	IC50 [1, 3]: 12.3 nM
77.3	264 to 266 °C	COc1ccc(C(=O)NNC(=O)c2ccc(NC(=O)c3ccc(OC)cc3)cc2)cc1 [Compound 10d, 4-methoxy-N-(4-(2-(4-methoxybenzoyl) hydrazine-1-carbonyl)phenyl) benzamide]	IC50 [1, 3]: 5.1 nM
38.9	322 to 325 °C	O=C(NNC(=O)c1ccc(NC(=O)c2ccc(F)cc2)cc1)c1ccc(F)cc1 [Compound 10e, 4-fluoro-N-(4-(2-(4-fluorobenzoyl) hydrazine-1-carbonyl)phenyl) benzamide]	–
